Test results as given in PubChem BioAssay AID328 (DTP/NCI, 2004).
Several values for one entry are separate records, joined by “and”; a condition that tells them apart may be missing. Equal entries are not always repeated. Toxic doses and inconclusive results are not listed.

System: BDF1 mice, P388 leukemia ip, median survival T/C
Assay: NCI In Vivo Anticancer Drug Screen. Data for tumor model P388 Leukemia (intraperitoneal) in B6D2F1 (BDF1) mice
Details: endpoint: median survival time, higher = longer survival
Method in brief: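 Reported as T/C, where T is the survival measurement in dosed animals and C the same measurement in vehicle controls.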

[1] = dose: 50.0 mg/kg/injection, schedule: Q01DX009 (ip), vehicle: saline with Tween-80
[2] = dose: 50.0 mg/kg/injection, schedule: Q01DX009 (ip), vehicle: saline
[3] = dose: 100.0 mg/kg/injection, schedule: Q01DX009 (ip), vehicle: saline
[4] = dose: 100.0 mg/kg/injection, schedule: Q04DX002 (ip), vehicle: saline with Tween-80
[5] = dose: 100.0 mg/kg/injection, schedule: Q04DX003 (ip), vehicle: saline
[6] = dose: 100.0 mg/kg/injection, schedule: Q01DX009 (ip), vehicle: Klucel (hydroxypropylcellulose) (HPC)
[7] = dose: 100.0 mg/kg/injection, schedule: Q04DX003 (ip), vehicle: Klucel (hydroxypropylcellulose) (HPC)
[8] = dose: 200.0 mg/kg/injection, schedule: Q04DX003 (ip), vehicle: Klucel (hydroxypropylcellulose) (HPC)
[9] = dose: 100.0 mg/kg/injection, schedule: Q01DX001 (ip), vehicle: Klucel (hydroxypropylcellulose) (HPC)
[10] = dose: 200.0 mg/kg/injection, schedule: Q01DX001 (ip), vehicle: Klucel (hydroxypropylcellulose) (HPC)
[11] = dose: 100.0 mg/kg/injection, schedule: Q04DX003 (ip), vehicle: saline with Tween-80
[12] = dose: 200.0 mg/kg/injection, schedule: Q04DX003 (ip), vehicle: saline with Tween-80
[13] = dose: 50.0 mg/kg/injection, schedule: Q04DX003 (ip), vehicle: saline
[14] = dose: 25.0 mg/kg/injection, schedule: Q04DX003 (ip), vehicle: saline with Tween-80
[15] = dose: 50.0 mg/kg/injection, schedule: Q04DX003 (ip), vehicle: saline with Tween-80
[16] = dose: 100.0 mg/kg/injection, schedule: Q01DX009 (ip), vehicle: saline with Tween-80

With `COc1ccc(C[C@@H]2NC[C@@H](O)[C@@H]2OC(C)=O)cc1` the T/C (dose: 6.25 mg/kg/injection, schedule: Q04DX002 (ip), vehicle: saline with Tween-80) was 100 % of control, the T/C (dose: 12.5 mg/kg/injection, schedule: Q04DX002 (ip), vehicle: saline with Tween-80) was 106 % of control and the T/C (dose: 22.0 mg/kg/injection, schedule: Q01DX009 (ip), vehicle: saline) was 106 % of control. The T/C (dose: 25.0 mg/kg/injection, schedule: Q04DX002 (ip), vehicle: saline with Tween-80) was 100 % of control, the T/C (dose: 33.0 mg/kg/injection, schedule: Q01DX009 (ip), vehicle: saline with Tween-80) was 112 % of control and the T/C (dose: 33.0 mg/kg/injection, schedule: Q01DX009 (ip), vehicle: saline) was 106 % of control. The T/C (dose: 44.0 mg/kg/injection, schedule: Q04DX003 (ip), vehicle: saline) was 102 % of control, the T/C [1] was 113 % of control and the T/C [2] was 106 % of control. The T/C (dose: 50.0 mg/kg/injection, schedule: Q04DX002 (ip), vehicle: saline with Tween-80) was 97 % of control, the T/C (dose: 66.0 mg/kg/injection, schedule: Q01DX001 (ip), vehicle: saline) was 111 % of control and the T/C (dose: 66.0 mg/kg/injection, schedule: Q04DX003 (ip), vehicle: saline) was 105 % of control. For the same molecule, the T/C (dose: 75.0 mg/kg/injection, schedule: Q01DX009 (ip), vehicle: saline with Tween-80) was 113 % of control, the T/C (dose: 100.0 mg/kg/injection, schedule: Q01DX001 (ip), vehicle: saline) was 104 % of control and the T/C [3] was 109 % of control. The T/C [4] was 104 % of control, the T/C [5] was 111 % of control and the T/C (dose: 113.0 mg/kg/injection, schedule: Q01DX009 (ip), vehicle: saline with Tween-80) was 120 % of control. The T/C (dose: 150.0 mg/kg/injection, schedule: Q01DX001 (ip), vehicle: saline) was 107 % of control, the T/C (dose: 150.0 mg/kg/injection, schedule: Q04DX003 (ip), vehicle: saline) was 110 % of control and the T/C (dose: 169.0 mg/kg/injection, schedule: Q01DX009 (ip), vehicle: saline with Tween-80) was 116 % of control. The T/C (dose: 225.0 mg/kg/injection, schedule: Q01DX001 (ip), vehicle: saline) was 103 % of control, the T/C (dose: 225.0 mg/kg/injection, schedule: Q04DX003 (ip), vehicle: saline) was 105 % of control and the T/C (dose: 338.0 mg/kg/injection, schedule: Q01DX001 (ip), vehicle: saline) was 102 % of control.
For `CCOC(=O)CNC(c1ccccc1)(c1ccccc1)c1ccccc1`, the T/C [6] was 95 % of control, the T/C [7] was 109 % of control and the T/C (dose: 200.0 mg/kg/injection, schedule: Q01DX009 (ip), vehicle: Klucel (hydroxypropylcellulose) (HPC)) was 91 % of control. The T/C [8] was 113 % of control, the T/C (dose: 400.0 mg/kg/injection, schedule: Q01DX009 (ip), vehicle: Klucel (hydroxypropylcellulose) (HPC)) was 108 % of control and the T/C (dose: 400.0 mg/kg/injection, schedule: Q04DX003 (ip), vehicle: Klucel (hydroxypropylcellulose) (HPC)) was 104 % of control.
`Cc1cc(=O)oc2cc3oc(N(C)c4ccccc4)nc(=O)c3cc12` was tested, and the T/C [4] was 100 % of control, the T/C (dose: 200.0 mg/kg/injection, schedule: Q04DX002 (ip), vehicle: saline with Tween-80) was 92 % of control and the T/C (dose: 400.0 mg/kg/injection, schedule: Q04DX002 (ip), vehicle: saline with Tween-80) was 102 % of control.
For `CN=C(N)c1ccc(N=C(N)c2ccc(N=C(N)c3ccc(C(N)=NC)cc3)cc2)cc1`, the T/C (dose: 10.0 mg/kg/injection, schedule: Q04DX003 (ip), vehicle: saline) was 104 % of control, the T/C (dose: 20.0 mg/kg/injection, schedule: Q04DX003 (ip), vehicle: saline) was 104 % of control and the T/C (dose: 40.0 mg/kg/injection, schedule: Q04DX003 (ip), vehicle: saline) was 116 % of control.
`Cc1ccc(C(=O)C2CN(C)CCC2(O)c2ccc(C)cc2)cc1` (stereo not given) was tested, and the T/C [9] was 90 % of control, the T/C [10] was 110 % of control and the T/C (dose: 400.0 mg/kg/injection, schedule: Q01DX001 (ip), vehicle: Klucel (hydroxypropylcellulose) (HPC)) was 90 % of control.
With `COc1ccc(OC)c(C(=O)C[n+]2ccccc2)c1` the T/C (dose: 25.0 mg/kg/injection, schedule: Q01DX009 (ip), vehicle: saline with Tween-80) was 91 % of control and the T/C [1] was 91 % of control.
In the case of `O=C1NC(=O)C2(CCCc3ccc(N(CCCl)CCCl)cc32)N1` (stereo not given), the T/C (dose: 6.25 mg/kg/injection, schedule: Q04DX003 (ip), vehicle: saline with Tween-80) is reported as 150 % of control, the T/C (dose: 12.5 mg/kg/injection, schedule: Q04DX003 (ip), vehicle: saline with Tween-80) is reported as 170 % of control and the T/C [11] is reported as 227 % of control. For the same molecule, the T/C (dose: 132.0 mg/kg/injection, schedule: Q04DX003 (ip), vehicle: saline with Tween-80) was 195 % of control, the T/C [12] was 229 % of control and 240 % of control and the T/C (dose: 300.0 mg/kg/injection, schedule: Q04DX003 (ip), vehicle: saline with Tween-80) was 191 % of control.
In the case of `O=C(O)/C=C\c1c[nH]c2nccnc12`, the T/C (dose: 12.5 mg/kg/injection, schedule: Q01DX009 (ip), vehicle: saline) is reported as 103 % of control, the T/C (dose: 25.0 mg/kg/injection, schedule: Q01DX009 (ip), vehicle: saline) is reported as 95 % of control and the T/C (dose: 25.0 mg/kg/injection, schedule: Q04DX003 (ip), vehicle: saline) is reported as 97 % of control. The T/C [2] was 95 % of control and the T/C [13] was 100 % of control.
In the case of `CCCOc1ccc(-c2nc(-c3ccc(N=Cc4ccc(N(CCOS(C)(=O)=O)CCOS(C)(=O)=O)cc4C)cc3)cs2)cc1`, the T/C [14] is reported as 156 % of control, the T/C [15] is reported as 175 % of control and the T/C [11] is reported as 166 % of control.
`CC(=O)c1ccccc1-n1c(C)ccc1C` was tested, and the T/C (dose: 25.0 mg/kg/injection, schedule: Q01DX009 (ip), vehicle: saline + alcohol) was 114 % of control, the T/C (dose: 50.0 mg/kg/injection, schedule: Q01DX009 (ip), vehicle: saline + alcohol) was 122 % of control and the T/C [13] was 96 % of control. The T/C (dose: 100.0 mg/kg/injection, schedule: Q01DX009 (ip), vehicle: saline + alcohol) was 116 % of control, the T/C [5] was 119 % of control and the T/C (dose: 200.0 mg/kg/injection, schedule: Q01DX009 (ip), vehicle: saline + alcohol) was 99 % of control. The T/C (dose: 200.0 mg/kg/injection, schedule: Q04DX003 (ip), vehicle: saline) was 92 % of control and the T/C (dose: 400.0 mg/kg/injection, schedule: Q04DX003 (ip), vehicle: saline) was 97 % of control.
For `O=C1C=C(O/C=C/C(C(F)(F)F)C(F)(F)F)C(=O)c2ccccc21`, the T/C [16] was 109 % of control.
With `CCCCCCCCCC(O)CCCCC` (stereo not given) the T/C (dose: 20.0 mg/kg/injection, schedule: Q01DX009 (ip), vehicle: saline with Tween-80) was 100 % of control, the T/C [14] was 95 % of control and the T/C (dose: 45.0 mg/kg/injection, schedule: Q01DX009 (ip), vehicle: saline with Tween-80) was 100 % of control. The T/C [15] was 108 % of control, the T/C (dose: 90.0 mg/kg/injection, schedule: Q01DX009 (ip), vehicle: saline with Tween-80) was 104 % of control and the T/C [16] was 113 % of control. For the same molecule, the T/C [3] was 170 % of control, the T/C [11] was 100 % of control and the T/C (dose: 135.0 mg/kg/injection, schedule: Q01DX009 (ip), vehicle: saline with Tween-80) was 95 % of control. For the same molecule, the T/C (dose: 200.0 mg/kg/injection, schedule: Q01DX009 (ip), vehicle: saline with Tween-80) was 108 % of control, the T/C [12] was 95 % of control and the T/C (dose: 400.0 mg/kg/injection, schedule: Q01DX009 (ip), vehicle: saline with Tween-80) was 113 % of control. The T/C (dose: 400.0 mg/kg/injection, schedule: Q04DX003 (ip), vehicle: saline with Tween-80) was 100 % of control.
With `O=C1C(O)=Cc2cn(CCO)c(=O)c3ccc(-c4ccccc4)c1c23` the T/C (dose: 50.0 mg/kg/injection, schedule: Q01DX001 (ip), vehicle: Klucel (hydroxypropylcellulose) (HPC)) was 100 % of control, the T/C [9] was 100 % of control and the T/C [10] was 104 % of control.
With `OCC1(c2ccccc2)CCN(Cc2ccccc2)CC1` the T/C (dose: 25.0 mg/kg/injection, schedule: Q01DX009 (ip), vehicle: Klucel (hydroxypropylcellulose) (HPC)) was 107 % of control, the T/C (dose: 50.0 mg/kg/injection, schedule: Q01DX009 (ip), vehicle: Klucel (hydroxypropylcellulose) (HPC)) was 107 % of control and the T/C [6] was 87 % of control. For the same molecule, the T/C [7] was 91 % of control and the T/C [8] was 87 % of control.
